Measured values taken from ChEMBL document CHEMBL3045975, “In vitro anti-inflammatory potential and QSAR analysis of oxazolo/thiazolo pyrimidine derivatives” (Med Chem Res, 2013).

Test: In vitro anti-inflammatory activity assessed as inhibition of heat-induced albumin denaturtion incubated for 15 min followed by heating measured after 10 min
Type: functional

Compound	IC50
COc1ccc(/C=c2\oc3n(c2=O)C(c2ccccc2)C(C(=O)Nc2ccccc2)=C(C)N=3)cc1 (configuration not stated)	304.179 ppm
CC1=C(C(=O)Nc2ccccc2)C(c2ccc([N+](=O)[O-])cc2)n2c(s/c(=C\c3ccc(N(C)C)cc3)c2=O)=N1 (configuration not stated)	336.75 ppm
COc1ccc(/C=c2\oc3n(c2=O)C(c2ccc([N+](=O)[O-])cc2)C(C(=O)Nc2ccccc2)=C(C)N=3)cc1 (configuration not stated)	259.104 ppm
CC1=C(C(=O)Nc2ccccc2)C(c2ccc([N+](=O)[O-])cc2)n2c(o/c(=C\c3ccc(Cl)cc3)c2=O)=N1 (configuration not stated)	196.05 ppm
CC1=C(C(=O)Nc2ccccc2)C(c2ccc([N+](=O)[O-])cc2)n2c(o/c(=C\c3ccc(N(C)C)cc3)c2=O)=N1 (configuration not stated)	339.35 ppm
COc1ccc(C2C(C(=O)Nc3ccccc3)=C(C)N=c3s/c(=C\c4ccc([N+](=O)[O-])cc4)c(=O)n32)cc1 (configuration not stated)	254.99 ppm
COc1ccc(C2C(C(=O)Nc3ccccc3)=C(C)N=c3s/c(=C\c4ccc(N(C)C)cc4)c(=O)n32)cc1 (configuration not stated)	301.677 ppm
COc1ccc(C2C(C(=O)Nc3ccccc3)=C(C)N=c3o/c(=C\c4ccc(Cl)cc4)c(=O)n32)cc1 (configuration not stated)	236.954 ppm
COc1ccc(C2C(C(=O)Nc3ccccc3)=C(C)N=c3o/c(=C\c4ccc([N+](=O)[O-])cc4)c(=O)n32)cc1 (configuration not stated)	272.584 ppm
COc1ccc(C2C(C(=O)Nc3ccccc3)=C(C)N=c3o/c(=C\c4ccc(N(C)C)cc4)c(=O)n32)cc1 (configuration not stated)	314.544 ppm
COc1ccc(/C=c2\sc3n(c2=O)C(c2ccc(Cl)cc2)C(C(=O)Nc2ccccc2)=C(C)N=3)cc1 (configuration not stated)	232.597 ppm
CC1=C(C(=O)Nc2ccccc2)C(c2ccc(Cl)cc2)n2c(s/c(=C\c3ccc([N+](=O)[O-])cc3)c2=O)=N1 (configuration not stated)	190.42 ppm
CC1=C(C(=O)Nc2ccccc2)C(c2ccc(Cl)cc2)n2c(s/c(=C\c3ccc(N(C)C)cc3)c2=O)=N1 (configuration not stated)	309.862 ppm
COc1ccc(/C=c2\oc3n(c2=O)C(c2ccc(Cl)cc2)C(C(=O)Nc2ccccc2)=C(C)N=3)cc1 (configuration not stated)	242.144 ppm
CC1=C(C(=O)Nc2ccccc2)C(c2ccc(Cl)cc2)n2c(o/c(=C\c3ccc([N+](=O)[O-])cc3)c2=O)=N1 (configuration not stated)	192.486 ppm
CC1=C(C(=O)Nc2ccccc2)C(c2ccc(Cl)cc2)n2c(o/c(=C\c3ccc(N(C)C)cc3)c2=O)=N1 (configuration not stated)	319.524 ppm
COc1ccc(/C=c2\sc3n(c2=O)C(c2ccc([N+](=O)[O-])cc2)C(C(=O)Nc2ccccc2)=C(C)N=3)cc1 (configuration not stated)	250.38 ppm
CC1=C(C(=O)Nc2ccccc2)C(c2ccc([N+](=O)[O-])cc2)n2c(s/c(=C\c3ccc(Cl)cc3)c2=O)=N1 (configuration not stated)	194.611 ppm
COc1ccc(/C=c2\sc3n(c2=O)C(c2ccccc2)C(C(=O)Nc2ccccc2)=C(C)N=3)cc1 (configuration not stated)	291.257 ppm
CC1=C(C(=O)Nc2ccccc2)C(c2ccccc2)n2c(s/c(=C\c3ccc(Cl)cc3)c2=O)=N1 (configuration not stated)	226.318 ppm
CC1=C(C(=O)Nc2ccccc2)C(c2ccccc2)n2c(s/c(=C\c3ccc([N+](=O)[O-])cc3)c2=O)=N1 (configuration not stated)	253.376 ppm
CC1=C(C(=O)Nc2ccccc2)C(c2ccccc2)n2c(s/c(=C\c3ccc(N(C)C)cc3)c2=O)=N1 (configuration not stated)	316.686 ppm
CC1=C(C(=O)Nc2ccccc2)C(c2ccccc2)n2c(o/c(=C\c3ccc(Cl)cc3)c2=O)=N1 (configuration not stated)	261.464 ppm
CC1=C(C(=O)Nc2ccccc2)C(c2ccccc2)n2c(o/c(=C\c3ccc([N+](=O)[O-])cc3)c2=O)=N1 (configuration not stated)	283.525 ppm
CC1=C(C(=O)Nc2ccccc2)C(c2ccccc2)n2c(o/c(=C\c3ccc(N(C)C)cc3)c2=O)=N1 (configuration not stated)	330.312 ppm
COc1ccc(C2C(C(=O)Nc3ccccc3)=C(C)N=c3s/c(=C\c4ccc(Cl)cc4)c(=O)n32)cc1 (configuration not stated)	210.874 ppm
O=C([O-])Cc1ccccc1Nc1c(Cl)cccc1Cl.[Na+] [DICLOFENAC SODIUM]	188.24 ppm
